# Test results as given in ChEMBL document CHEMBL4118040, “Neomacrophorin X, a [4.4.3]Propellane-Type Meroterpenoid from Trichoderma sp. 1212-03” (J Nat Prod, 2017).
# Assays:
# [1] = biological target: T1, Proteasome Macropain subunit MB1 (Homo sapiens, UniProt P28074); experiment: Inhibition of human erythrocyte 20s proteasome chymotrypsin-like activity using Suc-LLVY-MCA as substrate pretreated for 10 mins followed by substrate addition measured after 3 hrs by spectrophotometric method
# T1 sequence (P28074 whole entry): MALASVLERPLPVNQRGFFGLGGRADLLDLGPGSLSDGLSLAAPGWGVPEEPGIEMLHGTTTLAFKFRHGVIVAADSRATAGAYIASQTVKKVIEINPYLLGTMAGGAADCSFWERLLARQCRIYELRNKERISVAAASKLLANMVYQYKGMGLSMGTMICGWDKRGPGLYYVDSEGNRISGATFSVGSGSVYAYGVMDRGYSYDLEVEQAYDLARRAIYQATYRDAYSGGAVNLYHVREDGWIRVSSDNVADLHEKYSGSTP
# HL-60 = experiment: Cytotoxicity against human HL60 cells after 2 days by MTT assay; type: functional, cell-based; settings: HL-60, 48 h
smiles,measurement,setting,value
C=C1CC[C@H]2C(C)(C)[C@H](O)CC[C@]2(C)[C@H]1CC1=C(O)C(=O)C2=C(C1=O)[C@@]13C=C[C@@H](O)[C@H](O)[C@]1(C2)C(=O)c1c(O)cc(C)cc1C3=O,IC50,[1],18.5 µM
same,IC50,HL-60,9.3 µM
